Key:
female ICR mice = experiment: Acute toxicity study, 14 days intragastric administration; assay type: in vivo; conditions: for Liver tissue morphology, HE staining: intragastric
Procedure: Preliminary safety evaluation of BAP 16 […]
(§1) Acute Toxicity Studies: Animal experiments were reviewed and approved by the Binzhou Medical University Experimental Animal Committee. The acute toxicity study was investigated on the six-week-old female ICR mice (n = 30) weighing 18-22 grams (Jinan Pengyue Experimental Animal Breeding Co., Ltd.). Briefly, mice were randomly divided into three groups (n = 10/group) and administrated the BAP 16 or solvent. The three groups of mice were treated with intragastric administration of 300 mg/kg, 600 mg/kg of BAP 16 and vehicle (saline containing 0.5% CMC-Na) each day. The body weight of mice was recorded every day, and the toxicity and death of mice were monitored daily for up to day 14. On day 14, the surviving animals were dissected to observe whether the internal organs had visible tissue changes, and then the livers were taken for formaldehyde fixation, dehydration, embedding, sectioning, and HE staining. The cell images were taken using a light microscopy (Olympus, Tokyo, Japan).
During the 14 days of intragastric administration, the food and water intakes of all three groups […]
eosinophilic changes, and edema (Figure S1).
Figure S1. The morphology of the liver tissues after the photo by HE staining. (A) In the control group, the hepatic lobular cells were normal without edema and degeneration. (B) In the 300 mg/kg […]
nucleus stained deeper. […] (C) […]
smaller and the color of nucleus became deeper. There were obvious eosinophilic changes and […]
(1 picture or pasted object on this page, not shown here)

HepG2 cells = experiment: Apoptosis assay, Annexin V-FITC/PI flow cytometry; assay type: cell-based, Human; conditions: 1.0 μM, 24 h
Procedure: HepG2 cells were selected and plated at a density of approximately 2 × 10^5 cells/well in a 12-well plate. After treatment with BAP 16 (1.0, 2.0, and 4.0 μM) and DMSO for 24 h, cells were harvested, washed twice with pre-chilled PBS, and suspended in 1 × binding buffer at a concentration of 1 × 10^5 cells/mL. According to the manufacturer’s instruction, 100 μL of such medium was then mixed with 5 μL of Annexin V-FITC and 5 μL of propidium iodide (BD Biosciences, San Jose, CA, USA). The mixture was vortexed gently, then incubated in the dark at room temperature for 15 min. Apoptosis analysis was measured by flow cytometry (BD FACS Calibur).

in vitro = assay type: cell-based; conditions: human
Procedure: aThe letters SI refer to the selectivity index which is the quotient of the IC50 values for normal and […]
Preliminary safety evaluation of BAP 16
Toxicity test on normal non-liver cell lines: To validate the safety of BAP 16, one Human embryonic lung fibroblasts cell line (HFL1), one human embryonic kidney cell line (HEK293), and one human normal lung bronchial epithelial cell line (BEAS-2B) were tested using a modified MTT assay (Dojindo Laboratories, Tokyo, Japan). F12K medium containing 10% FBS was used for culturing the HFL1 cell line, DMEM medium containing 10% FBS and 1.5 g/L sodium bicarbonate was used for culturing the HEK293 cell line, and the BEAS-2B special medium was used for culturing BEAS-2B cell line. The remaining operations were consistent with the previous […]
human normal non-heptical cell lines (HFL1, HEK293 and BEAS-2B), which was similar to that of human normal heptical cell lines.
Table S2. Toxicity test of BAP 16 on normal non-heptical cell lines. […]
as §1

[1] = Modified MTT cytotoxicity assay, normal heptical cell line HHL-5; conditions: human, HHL-5 cells (normal hepatic cell line)
p-p65 = experiment: Western blot, LPS-stimulated phosphorylation of p65 in RAW264.7 cells; assay type: cell-based, mouse; conditions: RAW264.7, 1.0, 2.0, 4.0 μM, LPS 1.0 μg/mL 30 min
Description: Primary antibodies (anti-Bax, Abcam, ab32503; anti-Bcl-2, Abcam, ab194583; anti-Cleaved caspase-3, Abcam, ab2302; anti-p65, Cell Signalling Technology, 8242S; anti-p-p65, Cell Signalling Technology, 3033S; anti-IκBα, Cell Signalling Technoligy, 4812S; anti-p-IκBα, Cell Signalling Technology, 2859S; anti-p38, Cell Signalling Technology, 8690S; anti-p-p38, Cell Signalling Technology, 4511S; anti-JNK, Cell Signalling Technology, 9258 T; anti-p-JNK, Santa Cruz Biotechnology, sc-6254; anti-GAPDH, Abcam, ab181602), and goat anti-rabbit IgG/HRP secondary antibodies (Cell Signalling Technology, 98164 s) were purchased and used according to the manufacturer’s instructions. HepG2 cell lines were incubated with different doses of BAP 16 (1.0, 2.0, 4.0 μM) for 24 h (Bax, Cleaved caspase-3, Bcl-2). RAW264.7 cells were incubated with BAP 16 for 1 h, then treated with LPS (1.0 μg/mL) for 30 min. Afterward cell extraction was performed and extracts were used for Western blot analysis. Next, 30 μg protein of cell lysates were separated by 12% SDS-PAGE gel. The proteins were then transferred onto nitrocellulose membranes. […] By using Quantity One software (Bio-Rad), western blotting results were quantified from more than three separate experiments.

[2] = mice, intragastric, 300, 600 mg/kg/d, 14 days

O=C1C(=Cc2cccc(C(F)(F)F)c2)CN(S(=O)(=O)c2ccc(C(F)(F)F)cc2)CC1=Cc1cccc(C(F)(F)F)c1 [BAP 16]
Overall toxicity conclusion (female ICR mice; cell and acute toxicity studies together): low overall toxicity | Liver tissue morphology, HE staining (female ICR mice; mice, 300 mg/kg group, day 14): some liver cells became smaller | Liver tissue morphology, HE staining (female ICR mice; mice, 600 mg/kg group, day 14): the cytoplasm of mouse liver was dehydrated seriously | Body weight (female ICR mice; [2]): increased slightly | Food and water intakes (female ICR mice; [2]): normal | Toxic reaction observed during administration (female ICR mice; [2]): no obvious toxic reaction was observed | Liver tissue changes, HE staining (female ICR mice; mice, intragastric, 300, 600 mg/kg/d, day 14): dose-related toxic changes | Apoptosis of HepG2 cells (HepG2 cells): 31.7% | IC50 (in vitro; Cytotoxicity IC50 BEAS-2B): 17.6 ± 2.53 µM | IC50 (in vitro; Cytotoxicity IC50 HEK293): 7.19 ± 0.91 µM | IC50 (in vitro; Cytotoxicity IC50 HFL1): 9.62 ± 1.52 µM | IC50 [1]: 6.2 ± 0.4 µM | Expression level of p-p65 (p-p65): significantly decreased in a dose-dependent manner

Reference: publication PMC8297402, “Trifluoromethyl-substituted 3,5-bis(arylidene)-4-piperidones as potential anti-hepatoma and anti-inflammation agents by inhibiting NF-кB activation” (Journal of Enzyme Inhibition and Medicinal Chemistry, 2021)
